Source: patent EP1764363A2, “Substituted acetophenonederivatives” (Riemser Arzneimittel AG, priority 2005, dated 2007)
≈ marks a conversion by molar mass, not a printed value.

Legend:
[1] = test system: Staphylococcus aureus (Stamm ATCC 6538); assay: Mouse ear test (in vivo), antiseptic effect; set-up: key to Keimwachstum (grade): +++: totale Verhinderung des Keimwachstums; ++: Keimwachstum deutlich reduziert aber nicht völlig unterdrückt; conditions: mouse ears infected with S. aureus ATCC 6538; germ count vs infected untreated animal after 18 and 24 h
Bacillus subitilis = assay: Minimal inhibitory concentration (MHK), microtitre plate, TTC staining; format: cell-based; conditions: 48h, 36°C
S. epidermides = assay: as above; format: cell-based; conditions: 48h, 36°C
S. falcium = assay: as above; format: cell-based; conditions: 48h, 36°C
S. aureus = assay: as above; format: cell-based; conditions: 48h, 36°C
Rhodococcus equi = assay: as above; format: cell-based; conditions: 48h, 36°C
E. faecium = assay: as above; format: cell-based; conditions: 48h, 36°C
Salmonella sp = assay: as above; format: cell-based; conditions: 48h, 36°C
Excerpt: Das Inokulum für die Tests wurde durch Verdünnung der Mikroorganismen in wässriger 0,85% NaCI-Lösung hergestellt, die Verdünnung auf die Stufe 0,5 nach McFarland eingestellt und die Konzentration spektrometrisch bei einer Wellenlänge von 580nm überprüft. Die Zellsuspensionen wurden zur Verwendung in den Tests auf 10^4 UFC/ml verdünnt. Die MHK-Tests erfolgten (Vorschrift nach J. N. P. Eloff, Planta Medica, Vol. 64, 1998, p 711-713) in Mikrotiterplatten mit 96 Vertiefungen. Serienverdünnungen der Konzentrationen lagen im Bereich 1,00 - 0,0015 mg/mL. Als Kontrollsubstanzen dienten Chloramphenicol bzw. Nistatin (Merck) in einer Konzentration von 0,062 - 0,005 mg/ml bzw. 0,0125 - 0,001 mg/ml. Das Inokulum (100 µl) wurde in alle Vertiefungen gegeben und die Platten für 48h bei 36°C inkubiert. Die antimikrobielle Aktivität wurde durch Zugabe von 20 µl einer 0,5% igen wässrigen Lösung von TTC (Tetrazoliumchlorid, Merck) pro Vertiefung detektiert. Die minimale Hemmkonzentration (MHK) wird als die niedrigste Konzentration der Verbindung definiert die das sichtbare Wachstum hemmt (durch TTC-Färbung indiziert).

Escherichia coli = assay: as above; format: cell-based; conditions: 48h, 36°C
Micrococcus luteus = assay: as above; format: cell-based; conditions: 48h, 36°C
SKOV3 = assay: Chemosensitivity test (modified MTT test EZ4U); conditions: Homo sapiens, SK-OV-3, 96 h, read-out: IC50-Werte
WI38 = assay: Chemosensitivity test (modified MTT test EZ4U); conditions: for IC50: Homo sapiens, WI-38, 96 h, read-out: IC50-Werte; for Zellwachstum in % der Mediumkontrolle: 4 days
T47D [2] = assay: Chemosensitivity test (modified MTT test EZ4U); conditions: 4 days
SIM = assay: Chemosensitivity test (modified MTT test EZ4U); conditions: Homo sapiens, 96 h, read-out: IC50-Werte
LNCaP = assay: Chemosensitivity test (modified MTT test EZ4U); conditions: Homo sapiens, 96 h, read-out: IC50-Werte
J82 = assay: Chemosensitivity test (modified MTT test EZ4U); conditions: Homo sapiens, J82, 96 h, read-out: IC50-Werte
U87MG = assay: Chemosensitivity test (modified MTT test EZ4U); conditions: Homo sapiens, U-87 MG, 96 h, read-out: IC50-Werte
LAN1 = assay: Chemosensitivity test (modified MTT test EZ4U); conditions: Homo sapiens, LAN1, 96 h, read-out: IC50-Werte
KAL = assay: Chemosensitivity test (modified MTT test EZ4U); conditions: Homo sapiens, 96 h, read-out: IC50-Werte
T47D [3] = assay: Cell count determination in a proliferation test; conditions: Homo sapiens, read-out: Inhibition des Zellenwachstums (in %)
Colo205 [4] = assay: Cell count determination in a proliferation test; conditions: Homo sapiens, COLO 205, read-out: Inhibition des Zellenwachstums (in %)
Colo205 [5] = assay: Chemosensitivity test (modified MTT test EZ4U); conditions: 4 days
MIAPaCa2 = assay: Chemosensitivity test (modified MTT test EZ4U); conditions: for IC50: Homo sapiens, MIA PaCa-2, 96 h, read-out: IC50-Werte; for Zellwachstum in % der Mediumkontrolle: 4 days
SW620 = assay: Chemosensitivity test (modified MTT test EZ4U); conditions: Homo sapiens, SW-620, 96 h, read-out: IC50-Werte
EW-7 = assay: Chemosensitivity test (modified MTT test EZ4U); conditions: Homo sapiens, 96 h, read-out: IC50-Werte
BT20 = assay: Cell count determination in a proliferation test; conditions: Homo sapiens, BT-20, read-out: Inhibition des Zellenwachstums (in %)
CaCo-2 = assay: Chemosensitivity test (modified MTT test EZ4U); conditions: Homo sapiens, Caco-2, 96 h, read-out: IC50-Werte
CRO2B = assay: Chemosensitivity test (modified MTT test EZ4U); conditions: Homo sapiens, 96 h, read-out: IC50-Werte

Row | IC50 (SKOV3) [µg/mL] | IC50 (LNCaP) [µg/mL] | IC50 (U87MG) [µg/mL] | Structure (SMILES) | Keimwachstum (grade) [1] | IC50 (WI38) [µg/mL] | Zellwachstum in % der Mediumkontrolle (WI38; WI38 (Fibroblasten), 5 µg/ml) | Zellwachstum in % der Mediumkontrolle (WI38; WI38 (Fibroblasten), 10 µg/ml) | Zellwachstum in % der Mediumkontrolle (WI38; WI38 (Fibroblasten), 2,5 µg/ml) | Zellwachstum in % der Mediumkontrolle (T47D [2]; T47D (Mamakarzinom), 5 µg/ml) | Zellwachstum in % der Mediumkontrolle (T47D [2]; T47D (Mamakarzinom), 10 µg/ml) | Zellwachstum in % der Mediumkontrolle (T47D [2]; T47D (Mamakarzinom), 2,5 µg/ml) | IC50 (SIM) [µg/mL] | IC50 (J82) [µg/mL] | IC50 (LAN1) [µg/mL] | IC50 (KAL) [µg/mL] | inhibition at 50 µg/mL (T47D [3]) [%] | inhibition at 50 µg/mL (Colo205 [4]) [%] | Zellwachstum in % der Mediumkontrolle (Colo205 [5]; Colo205 (Colon), 5 µg/ml) | Zellwachstum in % der Mediumkontrolle (Colo205 [5]; Colo205 (Colon), 10 µg/ml) | Zellwachstum in % der Mediumkontrolle (Colo205 [5]; Colo205 (Colon), 2,5 µg/ml) | further results
1 | – | – | – | COc1ccc(C=CC(=O)c2ccccc2O)cc1 [CH-1, 1-(2-Hydroxyphenyl)-3-(4-methoxyphenyl)propenon] | ++ | – | – | – | – | – | – | – | – | – | – | – | – | – | – | – | – | –
2 | – | – | – | O=C(N[C@H](CO)[C@H](O)c1ccc([N+](=O)[O-])cc1)C(Cl)Cl [Chloramphenicol, reference compound] | – | – | – | – | – | – | – | – | – | – | – | – | – | – | – | – | – | MHK-Werte (Bacillus subitilis): 0,02 mg/ml; MHK-Werte (S. epidermides): 0,04 mg/ml; MHK-Werte (S. falcium): 0,12 mg/ml; MHK-Werte (S. aureus): 0,02 mg/ml; MHK-Werte (Rhodococcus equi): 0,04 mg/ml; MHK-Werte (E. faecium): 0,12 mg/ml; MHK-Werte (Salmonella sp): 0,06 mg/ml; MHK-Werte (Escherichia coli): 0,04 mg/ml; MHK-Werte (Micrococcus luteus): 0,05 mg/ml
3 | 36 (≈ 137 µM) | 3.25 (≈ 12.4 µM) | > 200 | O=C(/C=C/c1ccc(CO)o1)c1ccc(Cl)cc1 [HMF-2, 1-(4-Chlorophenyl)-3-(5-hydroxymethylfuran-2-yl)propenon] | +++ | 4.9 (≈ 18.7 µM) | 92,90% | 10,60% | 104,7% | 25,60% | 4,90% | 28,10% | > 200 | 47 (≈ 179 µM) | 4.25 (≈ 16.2 µM) | 45 (≈ 171 µM) | 75.6 | 35.6 | 78,6% | 41,30% | 84,80% | IC50 (MIAPaCa2): 10 µg/mL (≈ 38.1 µM); Zellwachstum in % der Mediumkontrolle (MIAPaCa2; MIAPaCa2 (Pankreas), 5 µg/ml): 91,10%; Zellwachstum in % der Mediumkontrolle (MIAPaCa2; MIAPaCa2 (Pankreas), 10 µg/ml): 74,60%; Zellwachstum in % der Mediumkontrolle (MIAPaCa2; MIAPaCa2 (Pankreas), 2,5 µg/ml): 84,30%; IC50 (SW620): 0.85 µg/mL (≈ 3.24 µM); IC50 (EW-7): 0.3 µg/mL (≈ 1.14 µM); inhibition at 50 µg/mL (BT20): 74%; IC50 (CaCo-2): 17.5 µg/mL (≈ 66.6 µM); IC50 (CRO2B): 50 µg/mL (≈ 190 µM)
4 | > 200 | 9.5 (≈ 38.9 µM) | > 200 | O=C(/C=C/c1ccc(CO)o1)c1ccccc1O [HMF-3, 3-(5-Hydroxymethylfuran-2-yl)-1-(2-hydroxyphenyl)-propenon] | – | 20 (≈ 81.9 µM) | 64,70% | 81,50% | 92% | 50,00% | 50,20% | 39,10% | > 200 | > 200 | 20 (≈ 81.9 µM) | > 200 | 57 | 3.5 | 68% | 82,60% | 85,90% | IC50 (MIAPaCa2): > 200 µg/mL; Zellwachstum in % der Mediumkontrolle (MIAPaCa2; MIAPaCa2 (Pankreas), 5 µg/ml): 81,80%; Zellwachstum in % der Mediumkontrolle (MIAPaCa2; MIAPaCa2 (Pankreas), 10 µg/ml): 50,60%; Zellwachstum in % der Mediumkontrolle (MIAPaCa2; MIAPaCa2 (Pankreas), 2,5 µg/ml): 84,10%; IC50 (SW620): 9.7 µg/mL (≈ 39.7 µM); IC50 (EW-7): 5.25 µg/mL (≈ 21.5 µM); inhibition at 50 µg/mL (BT20): 15.7%; IC50 (CaCo-2): > 200 µg/mL; IC50 (CRO2B): > 200 µg/mL
